This is an account of results in US5436273A, “Psychoactive propargylamine derivatives used in the treatment of anxiety, psychotic states or aggression” (Lowchol Scientific, Inc., priority 1993, dated 1995).

Molecules are shown by their SMILES. Read-outs that look alike come from different tables or passages of the source. Some results are limits rather than exact numbers.

Usually LD50 stands for the dose at which mortality reaches 50%. A higher LD50 goes with a less toxic substance.

Data set [1] has as its system isolation induced aggressive behavior in mice. Briefly: Inhibition of isolation induced fighting behavior in mice. As to conditions: for ED50: Mus musculus, ip, 0.5 h, read-out: ED50 (dose that suppressed aggressive behavior in 50% of the animals); for inhibition of aggressive behavior (in words): mice. In kind it is in vivo, CD #1 mice. The protocol:
1. Inhibition of Isolation Induced Fighting Behavior in Mice
After this period of confinement, the animals usually develop a marked intraspecific aggressive behavior when they are placed in the same cage.
The compound to be studied is administered i.p. to the selected groups (N=8 pairs/dose×5 doses) and the aggressive behavior is tested again 30 minutes later. […] A one week washout period is allowed between treatments.

Another data set can be described thus: Acute toxicity test. Conditions: mouse, in vivo, ip. The protocol:
CD #1 mice (20-30 g) are used for this test. The animals are individualy housed in glass beakers for a 2 hour period of acclimatization without food and water.

Another data set is described as follows: in vivo. Conditions: mouse, ip.
Data set [2] is described as follows: Rotarod neurotoxicity test in mice. As to conditions: mouse, in vivo, ip.
Data set [3] relates to righting reflex / ethanol narcosis in mice. Briefly: Potentiation of sleeping time induced by ethanol in mice. In kind it is in vivo, CD #1 mice. As to conditions: 5 mg/kg i.p., with ethanol. How it is done:
7. Potentiation of Sleeping Time Induced by Ethanol in Mice
This test was done with male CD #1 mice of 25-35 g. The mice are injected intraperitoneally (8 mice per dose). A subhypnotic dose of ethanol (12 ml/kg of 50% ethanol solution) is administered orally 30 minutes later.
The loss of the righting reflex is evaluated, for each animal, 30 minutes after the administration of the alcohol. It is considered that there is a potentialization of ethanol narcosis if the righting time exceeded 30 seconds.
The results which are reported in Table 7 are expressed in terms of the percentage of animals displaying a loss of the righting reflex versus the administered dose. Chlorpromazine (5 mg/kg i.p.) is used as a standard.

For data set [4], the system named is conditioned avoidance response in rats. The data set can be described thus: Inhibition of conditioned avoidance response in rats. In kind it is in vivo, Sprague Dawley rats. As to conditions: 5 mg/kg i.p. From the text:
6. Inhibition of Conditioned Avoidance Response in Rats
Male Sprague Dawley rats (200-250 g) are trained to avoid an electric foot shock, by continuously changing room with the appropriate visuals and auditory signals, in an automatic 2-way conditioned avoidance apparatus (Coulbourn Instrument Co.). Only the animals that perform at least a 70% avoidance (3 successive training sessions) are kept for the experiment.
The day of the experiment, the selected animals are submitted to a pre-treatment control session. The compound to be studied is then administered i.p. and the animals are placed back in the apparatus for evaluation 30 minutes later. Diazepam was used as a standard.

Data set [5] concerns exploratory behavior in rats. Briefly: Inhibition of exploratory behavior in rats (hole poking). It counts as in vivo, Sprague-Dawley rats. As to conditions: Rattus norvegicus, ip, 0.5 h, read-out: dose required to diminish by 50% the exploratory behavior. The protocol:
8. Inhibition of Exploratory Behavior in Rats (Hole Poking).
This test is done with Sprague-Dawley male rats of about 300 g. Activity is evaluated with a […] XYZ activity cage connected to a […] […] DCM-4. A perforated plate (16 holes of 2-5 cm diameter) is placed in the enclosure and on the activity case to register vertical activity. The number of times the rat placed his snout into the holes during a 10 minute period is recorded. The test was started 30 minutes after the interperitoneal injection of the compound to be studied.
The results which are reported in Table 8 are expressed in terms of the dose required to diminish by 50% the exploratory behavior, with reference to animals injected with the carrier only. Diazepam and buspirone are used as standards.

Where [6] appears, read: i.p., 30 minutes after administration, probit analysis.

In the case of `CCC(N)C#Cc1ccccc1` (centres unmarked) [Compound 25], in data set [1] (setting [6]), the ED50 turned out to be 16 mg/kg. For the same compound, the LD50 in “Acute toxicity test” came to 84 mg/kg. Also, in “in vivo”, the TD50 at 0.5 h is not below 84 mg/kg.
Compound `NCC#Cc1ccccc1` [Compound 26] returned an LD50 in the data set “Acute toxicity test” (probit analysis) not below 100 mg/kg.
With `CC(C#Cc1ccccc1)Nc1ccco1` (centres unmarked) [Compound 18], the ED50 in data set [1] (setting [6]) stood at 64 mg/kg. Further, the LD50 in the data set “Acute toxicity test” (probit analysis) was approximately 300 mg/kg.
As for `C#CC(C)(C)N` [Compound 36], the ED50 in data set [1] (setting [6]) turned out to be 176 mg/kg. Moreover, the LD50 in “Acute toxicity test” is 779 mg/kg. The same compound yielded a TD50 at 0.5 h in “in vivo” of 391 mg/kg.
In the data set “Acute toxicity test” (probit analysis), `CC(N)C#Cc1ccc(C(=O)N(C)C)cc1` (centres unmarked) [Compound 21] gave an LD50 of less than 100 mg/kg.
Take `CNC(C)C#Cc1ccccc1` (centres unmarked) [Compound 31]: the ED50 in data set [1] is 12 mg/kg. Moreover, the LD50 in “Acute toxicity test” (probit analysis) was found to be 95 mg/kg. In data set [2], this compound yielded a TD50 at 0.5 h not below 95 mg/kg.
In the case of `C(#Cc1ccccc1)CN1CCCCC1` [Compound 11], the ED50 in data set [1] (setting [6]) is 27 mg/kg. The LD50 in the data set “Acute toxicity test” came to 188 mg/kg. The TD50 at 0.5 h in the data set “in vivo” is 132 mg/kg.
For `FC(F)(F)c1cccc(C#CCNCCc2ccccc2)c1` [Compound 9] the same measures were 58 mg/kg, 252 mg/kg and 126 mg/kg.
Regarding `COc1ccc(C#CC(C)N)cc1` (centres unmarked) [Compound 23], in data set [1] (setting [6]), the ED50 stood at 24 mg/kg. In the data set “Acute toxicity test” (probit analysis), this compound registered an LD50 of more than 100 mg/kg.
For `C#CC(C)N(C)C` (centres unmarked) [Compound 35], in data set [1] (setting [6]), the ED50 came out at 92 mg/kg.
Take `CN(C)CCCN1c2ccccc2Sc2ccc(Cl)cc21` [Chlorpromazine, reference compound]: the “percentage of animals displaying a loss of the righting reflex” value in data set [3] stood at 100%.
Turning to `FC(F)(F)c1cccc(C#CCNc2ccco2)c1` [Compound 15], in data set [1] (setting [6]), the ED50 is 19 mg/kg. In addition, in “Acute toxicity test”, the LD50 amounted to 351 mg/kg. The compound further displayed a TD50 at 0.5 h in “in vivo” of 193 mg/kg.
With `CC(N)C#Cc1ccc(C(N)=O)cc1` (centres unmarked) [Compound 22], in “Acute toxicity test” (probit analysis), the LD50 is more than 100 mg/kg.
On to `C#CC(C)NC` (centres unmarked) [Compound 34], for which the ED50 in data set [1] (setting [6]) was 26 mg/kg. The same compound gave an LD50 in “Acute toxicity test” (probit analysis) of 828 mg/kg.
As to `CCNCC#Cc1ccccc1` [Compound 27], in data set [1] (setting [6]), the ED50 is 17 mg/kg. In “Acute toxicity test”, this compound registered an LD50 of 98 mg/kg. Also, the TD50 at 0.5 h in the data set “in vivo” was 88 mg/kg.
Consider `CC(N)C#Cc1ccc(C#N)cc1` (centres unmarked) [Compound 2, 2-Amino-4-(p-cyanophenyl)-3-butyne], for which the ED50 in data set [1] (setting [6]) amounted to 8 mg/kg. Further, the “inhibition of aggressive behavior (in words)” value in data set [1] (i.p.) is on record as “particularly potent inhibitors”. The compound further came in with an LD50 in “Acute toxicity test” (probit analysis) of more than 100 mg/kg. The same compound displayed a TD50 at 0.5 h in the data set “in vivo” of more than 100 mg/kg.
As to `CC(C#Cc1cccc(C(F)(F)F)c1)Nc1ccco1` (centres unmarked) [Compound 19], the ED50 in data set [1] (setting [6]) came out at 73 mg/kg.
In the case of `CCNC(C)C#Cc1ccccc1` (centres unmarked) [Compound 32], the ED50 in data set [1] was 23 mg/kg. The compound further showed an LD50 in the data set “Acute toxicity test” (probit analysis) of 120 mg/kg. The same compound registered a TD50 at 0.5 h in data set [2] not below 120 mg/kg.
In the case of `CC(N)C#Cc1ccc(Cl)cc1` (centres unmarked) [Compound 1, 2-Amino-4-(p-chlorophenyl)-3-butyne], in data set [1] (setting [6]), the ED50 worked out at 12 mg/kg. The “inhibition of aggressive behavior (in words)” value in data set [1] (i.p.) is “particularly potent inhibitors”. The compound also came in with an LD50 in the data set “Acute toxicity test” (probit analysis) of 130 mg/kg. Moreover, the TD50 at 0.5 h in the data set “in vivo” was approximately 65 mg/kg.
In the case of `CC(C)NC(C)C#Cc1ccccc1` (centres unmarked) [Compound 13], the ED50 in data set [1] (setting [6]) stood at 27 mg/kg. The compound further showed an LD50 in “Acute toxicity test” (probit analysis) of 120 mg/kg.
Regarding `CC(C#Cc1cccc(C(F)(F)F)c1)N(C)C` (centres unmarked) [Compound 7], the ED50 in data set [1] (setting [6]) is 38 mg/kg. The LD50 in “Acute toxicity test” amounted to 220 mg/kg. For the same compound, in “in vivo”, the TD50 at 0.5 h stood at 153 mg/kg.
In turn, `CN1C(=O)CN=C(c2ccccc2)c2cc(Cl)ccc21` [Diazepam] registered a conditioned avoidance response in data set [4] of 57.5%. For the same compound, the ED50 in data set [5] worked out at 14.2 ± 5 mg/kg.
`CC(N)C#Cc1ccccc1` (centres unmarked) [Compound 30]: the ED50 in data set [1] (setting [6]) came out at 15 mg/kg. The LD50 in “Acute toxicity test” was 66 mg/kg. The TD50 at 0.5 h in the data set “in vivo” is approximately 50 mg/kg.
The matching figures for `CN(CC#Cc1cccc(C(F)(F)F)c1)Cc1ccccc1` [Compound 5]: 28 mg/kg, 416 mg/kg and 334 mg/kg.
For `CC(N)C#Cc1ccc([N+](=O)[O-])cc1` (centres unmarked) [Compound 20] the same measures were 10 mg/kg, 152 mg/kg and approximately 120 mg/kg.
For `CCN(CC)C(C)C#Cc1ccccc1` (centres unmarked) [Compound 33] the same measures were 44 mg/kg, 88 mg/kg and not below 88 mg/kg.
In the case of `CC(C#Cc1cccc(C(F)(F)F)c1)NCc1ccccc1` (centres unmarked) [Compound 17], in data set [1] (setting [6]), the ED50 was 50 mg/kg. The compound also had an LD50 in “Acute toxicity test” of 366 mg/kg. In addition, the TD50 at 0.5 h in “in vivo” stood at 123 mg/kg.
The compound `CC(N)C#Cc1cccc(Cl)c1` (centres unmarked) [Compound 24] showed an LD50 in “Acute toxicity test” of more than 100 mg/kg. This compound displayed a TD50 at 0.5 h in “in vivo” of 50 mg/kg.
Consider `CC(C#Cc1ccccc1)NCc1ccccc1` (centres unmarked) [Compound 16], for which the ED50 in data set [1] (setting [6]) came to 101 mg/kg. This compound also had an LD50 in “Acute toxicity test” of 309 mg/kg. For the same compound, in “in vivo”, the TD50 at 0.5 h amounted to 170 mg/kg.
